These compounds were tested against T1, Calmodulin-sensitive adenylate cyclase (Bacillus anthracis, UniProt P40136) (assay: Inhibition of Bacillus anthracis edema factor catalytic domain by radiometric assay).
T1 sequence (P40136 whole entry): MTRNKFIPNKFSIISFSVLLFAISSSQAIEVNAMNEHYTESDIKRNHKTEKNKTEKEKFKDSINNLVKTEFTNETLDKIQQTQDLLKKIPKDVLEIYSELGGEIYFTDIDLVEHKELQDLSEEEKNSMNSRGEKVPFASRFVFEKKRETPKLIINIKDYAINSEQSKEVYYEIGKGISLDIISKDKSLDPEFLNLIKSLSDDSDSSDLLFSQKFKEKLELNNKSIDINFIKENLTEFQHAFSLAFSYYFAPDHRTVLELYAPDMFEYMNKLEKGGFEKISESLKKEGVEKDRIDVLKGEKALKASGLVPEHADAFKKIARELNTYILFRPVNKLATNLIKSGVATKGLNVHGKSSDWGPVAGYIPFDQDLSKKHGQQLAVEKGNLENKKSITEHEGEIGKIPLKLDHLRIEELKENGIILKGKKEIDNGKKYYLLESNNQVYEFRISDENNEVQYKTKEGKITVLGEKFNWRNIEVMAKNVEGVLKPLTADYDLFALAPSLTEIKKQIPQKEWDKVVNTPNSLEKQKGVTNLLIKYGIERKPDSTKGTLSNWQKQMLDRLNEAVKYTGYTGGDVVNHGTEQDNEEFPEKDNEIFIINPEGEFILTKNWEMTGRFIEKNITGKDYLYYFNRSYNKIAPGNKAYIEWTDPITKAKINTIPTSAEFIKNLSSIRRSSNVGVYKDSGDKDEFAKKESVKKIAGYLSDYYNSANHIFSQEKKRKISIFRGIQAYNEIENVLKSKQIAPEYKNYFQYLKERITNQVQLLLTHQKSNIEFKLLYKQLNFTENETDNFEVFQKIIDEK
With `CNc1ccccc1C(=O)O[C@@H]1[C@H](O)[C@@H](COP(=O)(O)OP(=O)(O)OP(=O)(O)O)O[C@H]1n1ccc(N)nc1=O` the Ki was 100 nM.
For `CNc1ccccc1C(=O)N[C@@H]1[C@H](O)[C@@H](COP(=O)(O)OP(=O)(O)C(Cl)(Cl)P(=O)(O)O)O[C@H]1n1cnc2c(N)ncnc21`, the Ki was 8980 nM.
`CNc1ccccc1C(=O)O[C@H]1[C@@H](O)[C@H](n2cnc3c(N)ncnc32)O[C@@H]1CO[P@@](=O)(O)O[P@](=O)(O)OP(=O)(O)O` gave a Ki of 980 nM.

Reference: ChEMBL document CHEMBL1153128, “Synthesis of a hydrolytically stable, fluorescent-labeled ATP analog as a tool for probing adenylyl cyclases” (Bioorg Med Chem Lett, 2010)
